Marks after values point to notes of the source that are not given here.
Key:
suckling rats [1] = assay: Set II: different doses of protease, organ weights, stomach pH and body weight, Example 4; assay type: in vivo, Rattus norvegicus; parameters: mean body weight Bwt 1/Day 14 / mean body weight Bwt2/Day 15 / mean body weight Bwt3/Day 16 / mean body weight Bwt4/Day 17: unit not given here; settings: for Cecum / Distal SI / Liver / Pancreas / Proximal SI / SI length / Spleen / Stomach / Thymus: day 17; for pH: stomach contents
Description: The second study was about comparing the effect of different doses of protease (15000 USP, 7500 USP, 3750 USP and […]) on the development of the GI tract with control. In this experiment 2 litters of pups were used (n=13 and n=12). Pups were divided into five groups to fed with different doses of protease; 15000 USP (n=3), P7500 USP (n=6), P 3750 USP (n=6), P 1875 USP (n=5) and water as a control (n=5). The feeding was during 3 continuous days, once a day. 24 hours after the last feeding, on day 17, similar dissection steps and analytical procedures as mentioned for the previous experiment were followed.
All data are presented as mean±standard deviation (SD). […] Results were considered as significant when P<0.05.

suckling rats [2] = assay: Set I: body weight, GI and lymphoid organ weights, stomach pH after individual enzymes or mixture, Example 3
Description: All experiments were performed in young suckling rats by feeding them from 14 days of age via stomach tube for 3 continuous days (ones a day). One day after last treatment rats were euthanized and plasma and organs proceeded to study structural and functional changes of gastrointestinal system.
The pups were kept with their dam until dissection day (day 17).
In this set suckling pups were divided into five groups; control (water) amylase 10 000 USP/rat/day, lipase 4 000 USP/rat/day, protease 15 000 USP/rat/day, and mixture of these enzyme with corresponding activities per rat and day. This study was evaluating the effects of different pancreatic-like enzymes on the gut maturation and functioning and had 3 individual litters; n=12, n=10 and n=13, totally n=7 pups per each group. Each of the enzymes (Amylase, Protease and Lipase) (Sigma Aldrich) was available in the powder form and was resolved in distilled water prior to stomach feeding during days 14, 15 and 16. The volume of administered enzymes and distilled water (for control groups) was 0.01 ml/g BW. Each time, prior to the feeding procedure, the pups were weighed. […] Then 3 hours later, the pups were sedated with CO2 and anaesthetized by subcutaneous injection with a mixture of ketamine (Ketalar®, Pfizer, New York, USA, NaCl and azaperone (Stresnil®, Janssen Pharmaceutica, Beerse, Belgium), 0.01 ml/g BW. After opening the abdomen of the rats, 1 ml of blood was collected from heart by using syringes containing protease inhibitor and EDTA (50 μl) as anticoagulant and was transferred into ice-chilled tubes. After this, the pancreas was immediately dissected and rinsed with cold 0.9% NaCl, weighted and stored at −70 C. The SI was removed and its length was measured then divided into two halves, proximal and distal. Each segment was flushed out with cold 0.9% NaCl to clean the lumen and was then weighed separately. […] The stomach was removed and its content was collected into the tube (for measuring its pH) and frozen. Then cecum was dissected out, opened, rinse and weighed as well as liver and lymphoid organs spleen and thymus were dissected and weighted.
The contents of the stomach were de-frozen and then resolved with 1 ml of cold 0.9% NaCl. After resolving, they were centrifuged and the pH was measured in the supernatant using pH-meter.
All data are presented as mean±standard deviation (SD). Statistical comparisons between each group and control group were performed using the t-test. Results were considered as significant when P<0.05.

suckling 14 d old rats = assay: Exocrine pancreatic function (trypsin activity in pancreatic homogenates), Example 6; assay type: in vivo, rat; settings: 3 d oral gavage, in words (FIG. 10)
Excerpt: Treated groups were compared to control, *p<0.05.
The same rat model as in Experiments 3-5 was used.
The effect of microbial-derived enzymes with pancreatic activity: protease, lipase, amylase and their mixture on exocrine pancreatic secretion after 3 d of oral gavage to suckling 14 d old rats (see experiment 3-5 above). Treated groups were compared to control, *p<0.05

suckling rats [3] = assay: Papain vs microbial protease: intestinal disaccharidase activity in proximal SI, Example 8; assay type: in vivo, Rattus norvegicus; settings: proximal part of SI, in words (FIG. 13)
Excerpt: The litter size for each dam was limited to 12 or 13 pups, to reduce variability.
Suckling pups were divided into 3 groups depending on the treatments; microbial protease as a positive control, water as negative control and enzyme from papaya fruit (papain) (in total; protease=7, papain=8, control=7). The enzymes are available in the market in form of powders and were resolved in distilled water prior to stomach feeding during 14-16 d of age. The administered dose for each enzyme was 10000 USP/animal. The volume of administered enzymes and water (for control groups) was 0.01 ml/g b.wt. Prior to the feeding procedure, the pups were weighed. […] Three hours later, the pups were anaesthetized and organs were dissected out for analyses.
The activities of the brush-border enzymes lactase, maltase and sucrase were analyzed in the proximal part of the SI in groups treated with papain and protease.

Substance: Proteinase from Aspergillus melleus [Protease]
- diarrhoea (suckling rats [1]; highest dose of protease, after first dose on day 14): signs of diarrhoea
- mean body weight Bwt 1/Day 14 (suckling rats [1]; protease 15 000USP): 28.7
- mean body weight Bwt2/Day 15 (suckling rats [1]; protease 15 000USP): 27.4*
- mean body weight Bwt3/Day 16 (suckling rats [1]; protease 15 000USP): 28.2*
- mean body weight Bwt4/Day 17 (suckling rats [1]; protease 15 000USP): 30.1*
- mean body weight Bwt 1/Day 14 (suckling rats [1]; protease 1875USP): 28.2
- mean body weight Bwt2/Day 15 (suckling rats [1]; protease 1875USP): 31.7
- mean body weight Bwt3/Day 16 (suckling rats [1]; protease 1875USP): 32.9
- mean body weight Bwt4/Day 17 (suckling rats [1]; protease 1875USP): 34.8
- Cecum (suckling rats [1]; protease 1875 USP): 2.3 ± 0.2 mg/g BW
- Distal SI (suckling rats [1]; protease 1875 USP): 13.3 ± 1.4 mg/g BW
- Liver (suckling rats [1]; protease 1875 USP): 31.7 ± 1.1 mg/g BW
- Pancreas (suckling rats [1]; protease 1875 USP): 3.0 ± 0.4 mg/g BW
- Proximal SI (suckling rats [1]; protease 1875 USP): 16.4 ± 0.8 mg/g BW
- SI length (suckling rats [1]; protease 1875 USP): 1.5 ± 0.0 cm/g BW
- Spleen (suckling rats [1]; protease 1875 USP): 3.3 ± 0.4 mg/g BW
- Stomach (suckling rats [1]; protease 1875 USP): 6.1 ± 0.3 mg/g BW
- Thymus (suckling rats [1]; protease 1875 USP): 5.6 ± 0.3 mg/g BW
- mean body weight Bwt 1/Day 14 (suckling rats [1]; protease 3750USP): 28.5
- mean body weight Bwt2/Day 15 (suckling rats [1]; protease 3750USP): 30.5
- mean body weight Bwt3/Day 16 (suckling rats [1]; protease 3750USP): 32.3
- mean body weight Bwt4/Day 17 (suckling rats [1]; protease 3750USP): 33.3
- Cecum (suckling rats [1]; protease 3750 USP): 2.8 ± 0.3 mg/g BW
- Distal SI (suckling rats [1]; protease 3750 USP): 14.7 ± 1.1 mg/g BW
- Liver (suckling rats [1]; protease 3750 USP): 32.8 ± 1.7 mg/g BW
- Pancreas (suckling rats [1]; protease 3750 USP): 3.2 ± 0.3 mg/g BW
- Proximal SI (suckling rats [1]; protease 3750 USP): 17.6 ± 1.5 mg/g BW
- SI length (suckling rats [1]; protease 3750 USP): 1.5 ± 0.1 cm/g BW
- Spleen (suckling rats [1]; protease 3750 USP): 3.3 ± 0.5 mg/g BW
- Stomach (suckling rats [1]; protease 3750 USP): 6.4 ± 0.3 mg/g BW
- Thymus (suckling rats [1]; protease 3750 USP): 5.6 ± 0.8 mg/g BW
- mean body weight Bwt 1/Day 14 (suckling rats [1]; protease 7500USP): 28.9
- mean body weight Bwt2/Day 15 (suckling rats [1]; protease 7500USP): 30.6
- mean body weight Bwt3/Day 16 (suckling rats [1]; protease 7500USP): 32.2
- mean body weight Bwt4/Day 17 (suckling rats [1]; protease 7500USP): 33.6
- Cecum (suckling rats [1]; protease 7500 USP): 3.0 ± 0.2 mg/g BW
- Distal SI (suckling rats [1]; protease 7500 USP): 15.4 ± 1.7 mg/g BW
- Liver (suckling rats [1]; protease 7500 USP): 33.0 ± 1.6 mg/g BW
- Pancreas (suckling rats [1]; protease 7500 USP): 3.4 ± 0.4 mg/g BW
- Proximal SI (suckling rats [1]; protease 7500 USP): 19.3 ± 2.0 mg/g BW
- SI length (suckling rats [1]; protease 7500 USP): 1.8 ± 0.1 cm/g BW
- Spleen (suckling rats [1]; protease 7500 USP): 3.1 ± 0.1 mg/g BW
- Stomach (suckling rats [1]; protease 7500 USP): 6.3 ± 0.4 mg/g BW
- Thymus (suckling rats [1]; protease 7500 USP): 4.8 ± 0.6 mg/g BW
- Cecum (suckling rats [1]; protease 15000 USP): 4.2 ± 0.1 mg/g BW
- Distal SI (suckling rats [1]; protease 15000 USP): 18.6 ± 1.0 mg/g BW
- Liver (suckling rats [1]; protease 15000 USP): 38.5 ± 2.4 mg/g BW
- Pancreas (suckling rats [1]; protease 15000 USP): 4.8 ± 0.2 mg/g BW
- Proximal SI (suckling rats [1]; protease 15000 USP): 28.2 ± 1.7 mg/g BW
- SI length (suckling rats [1]; protease 15000 USP): 1.8 ± 0.1 cm/g BW
- Spleen (suckling rats [1]; protease 15000 USP): 3.0 ± 0.3 mg/g BW
- Stomach (suckling rats [1]; protease 15000 USP): 6.9 ± 0.7 mg/g BW
- Thymus (suckling rats [1]; protease 15000 USP): 3.0 ± 0.2 mg/g BW
- pH (suckling rats [1]; protease 1875 USP): 4.1 ± 0.2
- pH (suckling rats [1]; protease 3750 USP): 4.1 ± 0.4
- pH (suckling rats [1]; protease 7500 USP): 3.9 ± 0.7
- pH (suckling rats [1]; protease 15000 USP): 3.4 ± 0.8
- Body weight (suckling rats [2]; 3 days treatment, day 17): 33.6 ± 1.9 gr
- Cecum (suckling rats [2]; 3 days treatment, day 17): 4.0 ± 0.5 mg/g BW
- Distal SI (suckling rats [2]; 3 days treatment, day 17): 17.8 ± 2.5 mg/g BW
- Liver (suckling rats [2]; 3 days treatment, day 17): 35.8 ± 2.5 mg/g BW
- Pancreas (suckling rats [2]; 3 days treatment, day 17): 4.3 ± 0.4 mg/g BW
- Proximal SI (suckling rats [2]; 3 days treatment, day 17): 24.7 ± 3.5 mg/g BW
- SI length (suckling rats [2]; 3 days treatment, day 17): 1.7 ± 0.1 cm/g BW
- Spleen (suckling rats [2]; 3 days treatment, day 17): 3.4 ± 0.5 mg/g BW
- Stomach (suckling rats [2]; 3 days treatment, day 17): 7.2 ± 0.7 mg/g BW
- Thymus (suckling rats [2]; 3 days treatment, day 17): 3.96 ± 0.4 mg/g BW
- diarrhoea (suckling rats [2]; after receiving the first dose): diarrhoea observed after receiving the first dose
- pH (suckling rats [2]; stomach contents, day 17): 3.5 ± 0.3
- stimulation of the pancreatic function (suckling 14 d old rats): most efficient enzyme for stimulation of the pancreatic function
- activity of maltase compared to control (suckling rats [3]): significantly increased
- activity of sucrase compared to control (suckling rats [3]): significantly increased

— patent US9205137B2, “Maturation of gastrointestinal tract” (ANARA AB, priority 2010, dated 2015)
